Assay results as given in patent US11207291B2, “Antimicrobial compositions comprising cannabinoids and methods of using the same” (Graphium Biosciences, Inc., priority 2017, dated 2021).
Values after ≈ are worked out from the molar mass of the structure shown.

Assays:
[1] = system: S. aureus ATCC 29213; experiment: MIC/MBC testing (Example 5); assay type: cell-based; settings: Staphylococcus aureus, ATCC29213; Example 5; read-out: MIC
[2] = system: S. aureus MMX 757; experiment: MIC/MBC testing (Example 5); assay type: cell-based; settings: Staphylococcus aureus, MMX757; Example 5; read-out: MIC
[3] = system: E. faecalis ATCC 29212; experiment: MIC/MBC testing (Example 5); assay type: cell-based; settings: Enterococcus faecalis, ATCC29212; Example 5; read-out: MIC
[4] = system: E. faecalis MMX 848; experiment: MIC/MBC testing (Example 5); assay type: cell-based; settings: Enterococcus faecalis, MMX848; Example 5; read-out: MIC
[5] = system: S. pneumoniae ATCC 49619; experiment: MIC/MBC testing (Example 5); assay type: cell-based; settings: Streptococcus pneumoniae, ATCC49619; Example 5; read-out: MIC
[6] = system: S. pyogenes MMX 404; experiment: MIC/MBC testing (Example 5); assay type: cell-based; settings: Streptococcus pyogenes, MMX404; Example 5; read-out: MIC
[7] = system: E. coli ATCC 25922; experiment: MIC/MBC testing (Example 5); assay type: cell-based
[8] = system: Staphylococcus aureus (MSSA); experiment: Broth microdilution MIC, aerobic bacteria (Example 1); assay type: cell-based; settings: isolate MMX 100 (ATCC 29213)
[9] = system: Staphylococcus aureus (MRSA); experiment: microbe, parasite or virus in culture; assay type: cell-based; settings: Example 1; isolate MMX 757
[10] = system: Enterococcus faecalis (VSE); experiment: Broth microdilution MIC, aerobic bacteria (Example 1); assay type: cell-based; settings: isolate MMX 101 (ATCC 29212)
[11] = system: Enterococcus faecalis (VRE); experiment: microbe, parasite or virus in culture; assay type: cell-based; settings: Example 1; isolate MMX 848
[12] = system: Streptococcus pneumoniae; experiment: Broth microdilution MIC, aerobic bacteria (Example 1); assay type: cell-based; settings: Example 1; isolate MMX 1195 (ATCC 49619)
[13] = system: Streptococcus pyogenes; experiment: as above; assay type: cell-based; settings: isolate MMX 404
[14] = system: Escherichia coli; experiment: as above; assay type: cell-based; settings: isolate MMX 102 (ATCC 25922)
[15] = system: Klebsiella pneumoniae (KPC-2); assay type: cell-based; settings: Example 1; isolate MMX 4683
[16] = system: Pseudomonas aeruginosa; experiment: Broth microdilution MIC, aerobic bacteria (Example 1); assay type: cell-based; settings: Example 1; isolate MMX 1380
[17] = system: Acinetobacter baumannii; experiment: as above; assay type: cell-based; settings: Example 1; isolate MMX 1630
[18] = system: Clostridium difficile; experiment: Broth microdilution MIC, anaerobic bacteria (Example 1); assay type: cell-based; settings: Example 1
[19] = system: Lactobacillus crispatus; experiment: as above; assay type: cell-based; settings: Example 1; isolate MMX 4147
[20] = system: Lactobacillus jensenii; experiment: as above; assay type: cell-based; settings: Example 1; isolate MMX 4149
[21] = system: Bifidobacterium bifidum; experiment: as above; assay type: cell-based; settings: Example 1; isolate MMX 3965
[22] = system: Bifidobacterium longum; experiment: as above; assay type: cell-based; settings: Example 1; isolate MMX 3968
[23] = system: Bacteroides fragilis; experiment: as above; assay type: cell-based; settings: Example 1; isolate MMX 123 (ATCC 5285)
[24] = system: Candida parapsilosis; experiment: Broth microdilution MIC, yeast and fungi (Example 1); assay type: cell-based
[25] = system: Aspergillus fumigatus; experiment: as above; assay type: cell-based; settings: isolate MMX 5280 (ATCC MYA-3626)
[26] = Compound precipitation in uninoculated solubility controls (Example 1); assay type: physicochemical; parameters: key to precipitation observed (type): NA: not applicable (no precipitation observed); TRP: trace precipitate; DCP: distinct precipitate
Method: Plates were stacked 3-4 high, covered with a lid on the top plate, placed in plastic bags, and incubated at 35° C. for approximately 16 to 20 hr (aerobes), 20 to 24 hr (Streptococcus), and 24 and 48 hr (fungi). Anaerobe plates were stacked, covered with a lid on the top plate, placed in a BD GasPak EZ Anaerobe Container System and incubated at 35° C. for 48 hr. Following incubation, the microplates were removed from the incubator and viewed from the bottom using a plate viewer. […] The MIC was read and recorded as the lowest concentration of drug that inhibited visible growth of the organism.

[27] = Bioavailability assay: VB110 and CBD decoupling analysis of intestinal contents (Example 2); assay type: in vivo; settings: mice, oral gavage 120 mg/kg VB110
Method: In order to investigate the effectiveness of glycosylation to effect site-specific drug delivery, VB110 was administered to three mice by oral gavage and the animals sacrificed at 30, 60, and 90 minutes. Eight-week old male Swiss mice were fasted for 12 hours prior to administration of 120 mg/kg VB110 in 10% Ethanol USP, 10% Propylene Glycol USP, 0.05% Sodium Deoxycholate USP, 79.95% Saline USP. Following termination and tissue harvest, the intestinal contents were then extracted and analyzed by C18 reverse phase HPLC. […] This decoupling of VB110 is consistent with the large intestinal decoupling seen for sennoside beta-glycosides and is the result of secreted beta-glycosidases from the large intestinal microflora.

Compound: C[C@@H](O)[C@H]1C(=O)N2C(C(=O)O)=C(SCCN=CN)C[C@H]12 [Imipenem]
- MIC [1]: 0.015 µg/mL (≈ 0.0501 µM)
- MIC [2]: 4 µg/mL (≈ 13.4 µM)
- MIC [3]: 0.5 µg/mL (≈ 1.67 µM)
- MIC [4]: 1 µg/mL (≈ 3.34 µM)
- MIC [5]: 0.015 µg/mL (≈ 0.0501 µM)
- MIC [6]: ≤ 0.008 µg/mL
- MBC ([7]; Escherichia coli, ATCC25922, Example 5, quality control MBC test): 0.12 µg/mL (≈ 0.401 µM)
- MIC ([7]; Escherichia coli, ATCC25922, Example 5, read-out: MIC): 0.12 µg/mL (≈ 0.401 µM)
- MBC:MIC ([7]; ratios of 1-4 are indicative of bactericidal activity): 1

Compound: C=C(C)[C@@H]1CCC(C)=C[C@H]1c1c(O[C@@H]2O[C@H](CO)[C@@H](O)[C@H](O)[C@H]2O)cc(CCCCC)cc1O[C@@H]1O[C@H](CO)[C@@H](O)[C@H](O)[C@H]1O [VB110]
- MIC [8]: >256 µg/mL
- MIC [9]: >256 µg/mL
- MIC [10]: >256 µg/mL
- MIC [11]: >256 µg/mL
- MIC [12]: >256 µg/mL
- MIC [13]: >256 µg/mL
- MIC [14]: >256 µg/mL
- MIC [15]: >256 µg/mL
- MIC [16]: >256 µg/mL
- MIC [17]: >256 µg/mL
- MIC ([18]; isolate MMX 4381 (ATCC 00057)): >256 µg/mL
- MIC ([18]; isolate MMX 8330): >256 µg/mL
- MIC ([18]; isolate MMX 8333): >256 µg/mL
- MIC [19]: >256 µg/mL
- MIC [20]: >256 µg/mL
- MIC [21]: >256 µg/mL
- MIC [22]: >256 µg/mL
- MIC [23]: >256 µg/mL
- inhibition of growth relative to the growth control ([24]; 24 and 48 hr, concentrations >16 μg/mL): 50%
- MIC at 24 hr ([24]; Example 1, 24 hr, isolate MMX 2323 (ATCC 22019)): >256^2, μg/mL
- MIC at 48 hr ([24]; Example 1, 48 hr, isolate MMX 2323 (ATCC 22019)): >256^2 μg/mL
- MIC at 24 hr ([25]; 24 hr): >256, μg/mL
- MIC at 48 hr ([25]; 48 hr): >256 µg/mL
- precipitation observed (type) ([26]; MHB II): none
- lowest concentration at which precipitation was observed ([26]; RPMI): 32 µg/mL
- precipitation observed (type) ([26]; RPMI): TRP
- small intestinal contents (HPLC) ([27]; 30, 60, and 90 minutes): intact VB110, but no decoupled CBD
- large intestinal contents (HPLC) ([27]; 60 and 90 minute time points): contained both VB110 and CBD
